From patent US5308836A, “Pharmaceutical composition of stabilized [Leu^13 ]-motilin-Hse” (Sanwa Kagaku Kenkyusho Co., Ltd., priority 1991, dated 1994)
Like-named read-outs stand apart in the source and are kept apart here.

How the values were obtained:
[1] = assay type: physicochemical; details: for Amount of formed [Leu^13 ]-motilin-Hse-lactone: aqueous solution 20 μg/ml
Method: An aqueous solution containing 20 μg/ml of [Leu^13 ]-motilin-Hse was aseptically prepared by dissolving 1 mg of [Leu^13 ]-motilin-Hse in a refined water and adding 0.1N-sodium hydroxide and 0.1N-hydrochloric acid to adjust pH of the solution to 6.0 or 7.0.
Each of the solutions different in pH value was aseptically charged in a glass vial to seal the same. Each vial was stored in a constant temperature bath kept at 60° C. for 30 days and then a remaining amount of [Leu^13 ]-motilin-Hse was measured with HPLC method. […]
An aqueous solution containing 20 μg of [Leu^13 ]-motilin-Hse and 30 mg/ml of tartaric acid was aseptically prepared by dissolving 1 mg of [Leu^13 ]-motilin-Hse and tartaric acid in a refined water and adding 0.1N-sodium hydroxide and 0.1N-hydrochloric acid to adjust pH of the solution to 6.0 or 7.0.
(§1) Aqueous solutions, each containing 20 μg/ml of [Leu^13 ]-motilin were aseptically prepared by dissolving 1 mg of [Leu^13 ]-motilin in a refined water and adding 0.1N-sodium hydroxide and 0.1N-hydrochloric acid to adjust pH of each solution in various values.
(§2) Each of the solutions different in pH value was aseptically charged in a glass vial to seal the same. Each vial was stored in a constant temperature bath kept at 60° C. for 30 days and then a remaining amount of [Leu^13 ]-motilin was measured with HPLC method to check the relation with the pH value of the solution.
(§3) Aqueous solutions, each containing 20 μg/ml of [Leu^13 ]-motilin-Hsewere aseptically prepared by dissolving 1 mg of [Leu^13 ]-motilin-Hse in a refined water and adding 0.1 N-sodium hydroxide and 0.1 N-hydrochloric acid to adjust pH of each solution in various values.
as §2, with “]-motilin-Hse and amount of [Leu^13 ]-motilin-Hse-lactone formed by modification of Hse residue at 23-position of the former were” for “]-motilin was”
as §3, with “]-motilin-Hseand 30 mg/ml of tartaric acid were” for “]-motilin-Hsewere”, “]-motilin-Hse and tartaric acid” for “]-motilin-Hse”
as §3, with “]-motilin-Hseand 27.2 mg/ml of potassium dihydrogenphosphate were” for “]-motilin-Hsewere”, “]-motilin-Hse and potassium dihydrogenphosphate” for “]-motilin-Hse”, “N sodium” for “N-sodium”

[2] = assay type: physicochemical; details: lyophilized powder, no additive
Method: as §1
as §2, with “lyophilize” for “seal”
Aqueous solutions, each containing 20 μg/ml of [Leu^13 ]-motilin-Hsewere aseptically prepared by dissolving 1 mg of [Leu^13 ]-motilin-Hse in a refined water and adding 0.1N-sodium hydroxide and 0.1N-hydrochloric acid to adjust pH of each solution in various values.
as §2, with “lyophilize” for “seal”, “]-motilin-Hse and amount of [Leu^13 ]-motilin-Hse-lactone formed by modification of Hse residue at 23-position of the former were” for “]-motilin was”, “solution. […]” for “solution.”

[3] = compared with native type motilin and [Leu^13 ]-motilin; cited from earlier work

[Leu^13 ]-motilin-Hse
pH range of relatively stable state ([1]; [Leu^13 ]-motilin-Hse aqueous solution, no additive, 60° C. 30 days): 4.0-6.0
Amount of formed [Leu^13 ]-motilin-Hse-lactone ([1]; 27.2 mg/ml potassium dihydrogenphosphate, pH 3.0, 60° C. 30 days): 31.1%
Amount of formed [Leu^13 ]-motilin-Hse-lactone ([1]; 27.2 mg/ml potassium dihydrogenphosphate, pH 4.0, 60° C. 30 days): 17.5%
Amount of formed [Leu^13 ]-motilin-Hse-lactone ([1]; 27.2 mg/ml potassium dihydrogenphosphate, pH 4.5, 60° C. 30 days): 9.3%
Amount of formed [Leu^13 ]-motilin-Hse-lactone ([1]; 27.2 mg/ml potassium dihydrogenphosphate, pH 5.0, 60° C. 30 days): 5.7%
Amount of formed [Leu^13 ]-motilin-Hse-lactone ([1]; 27.2 mg/ml potassium dihydrogenphosphate, pH 5.5, 60° C. 30 days): 2.1%
Amount of formed [Leu^13 ]-motilin-Hse-lactone ([1]; 27.2 mg/ml potassium dihydrogenphosphate, pH 6.0, 60° C. 30 days): 0%
Amount of formed [Leu^13 ]-motilin-Hse-lactone ([1]; 27.2 mg/ml potassium dihydrogenphosphate, pH 6.5, 60° C. 30 days): 0%
Amount of formed [Leu^13 ]-motilin-Hse-lactone ([1]; 27.2 mg/ml potassium dihydrogenphosphate, pH 7.0, 60° C. 30 days): 0%
Amount of formed [Leu^13 ]-motilin-Hse-lactone ([1]; 27.2 mg/ml potassium dihydrogenphosphate, pH 8.0, 60° C. 30 days): 0%
Amount of formed [Leu^13 ]-motilin-Hse-lactone ([1]; 27.2 mg/ml potassium dihydrogenphosphate, pH 9.0, 60° C. 30 days): 0%
Amount of formed [Leu^13 ]-motilin-Hse-lactone ([1]; 30 mg/ml tartaric acid, pH 3.0, 60° C. 30 days): 29.7%
Amount of formed [Leu^13 ]-motilin-Hse-lactone ([1]; 30 mg/ml tartaric acid, pH 4.0, 60° C. 30 days): 16.8%
Amount of formed [Leu^13 ]-motilin-Hse-lactone ([1]; 30 mg/ml tartaric acid, pH 4.5, 60° C. 30 days): 6.4%
Amount of formed [Leu^13 ]-motilin-Hse-lactone ([1]; 30 mg/ml tartaric acid, pH 5.0, 60° C. 30 days): 2.7%
Amount of formed [Leu^13 ]-motilin-Hse-lactone ([1]; 30 mg/ml tartaric acid, pH 5.5, 60° C. 30 days): 1.5%
Amount of formed [Leu^13 ]-motilin-Hse-lactone ([1]; 30 mg/ml tartaric acid, pH 6.0, 60° C. 30 days): 0%
Amount of formed [Leu^13 ]-motilin-Hse-lactone ([1]; 30 mg/ml tartaric acid, pH 6.5, 60° C. 30 days): 0%
Amount of formed [Leu^13 ]-motilin-Hse-lactone ([1]; 30 mg/ml tartaric acid, pH 7.0, 60° C. 30 days): 0%
Amount of formed [Leu^13 ]-motilin-Hse-lactone ([1]; 30 mg/ml tartaric acid, pH 8.0, 60° C. 30 days): 0%
Amount of formed [Leu^13 ]-motilin-Hse-lactone ([1]; 30 mg/ml tartaric acid, pH 9.0, 60° C. 30 days): 0%
Amount of formed [Leu^13 ]-motilin-Hse-lactone ([1]; no additive, pH 3.0, 60° C. 30 days): 30.2%
Amount of formed [Leu^13 ]-motilin-Hse-lactone ([1]; no additive, pH 4.0, 60° C. 30 days): 18.7%
Amount of formed [Leu^13 ]-motilin-Hse-lactone ([1]; no additive, pH 4.5, 60° C. 30 days): 8.7%
Amount of formed [Leu^13 ]-motilin-Hse-lactone ([1]; no additive, pH 5.0, 60° C. 30 days): 5.5%
Amount of formed [Leu^13 ]-motilin-Hse-lactone ([1]; no additive, pH 5.5, 60° C. 30 days): 1.9%
Amount of formed [Leu^13 ]-motilin-Hse-lactone ([1]; no additive, pH 6.0, 60° C. 30 days): 0%
Amount of formed [Leu^13 ]-motilin-Hse-lactone ([1]; no additive, pH 6.5, 60° C. 30 days): 0%
Amount of formed [Leu^13 ]-motilin-Hse-lactone ([1]; no additive, pH 7.0, 60° C. 30 days): 0%
Amount of formed [Leu^13 ]-motilin-Hse-lactone ([1]; no additive, pH 8.0, 60° C. 30 days): 0%
Amount of formed [Leu^13 ]-motilin-Hse-lactone ([1]; no additive, pH 9.0, 60° C. 30 days): 0%
Amount of formed [Leu^13 ]-motilin-Hse-lactone ([2]; solution pH 3.0, 60° C. 30 days): 25.1%
Amount of formed [Leu^13 ]-motilin-Hse-lactone ([2]; solution pH 4.0, 60° C. 30 days): 16.9%
Amount of formed [Leu^13 ]-motilin-Hse-lactone ([2]; solution pH 4.5, 60° C. 30 days): 7.3%
Amount of formed [Leu^13 ]-motilin-Hse-lactone ([2]; solution pH 5.0, 60° C. 30 days): 3.9%
Amount of formed [Leu^13 ]-motilin-Hse-lactone ([2]; solution pH 5.5, 60° C. 30 days): 1.8%
Amount of formed [Leu^13 ]-motilin-Hse-lactone ([2]; solution pH 6.0, 60° C. 30 days): 0%
Amount of formed [Leu^13 ]-motilin-Hse-lactone ([2]; solution pH 6.5, 60° C. 30 days): 0%
Amount of formed [Leu^13 ]-motilin-Hse-lactone ([2]; solution pH 7.0, 60° C. 30 days): 0%
Amount of formed [Leu^13 ]-motilin-Hse-lactone ([2]; solution pH 8.0, 60° C. 30 days): 0%
Amount of formed [Leu^13 ]-motilin-Hse-lactone ([2]; solution pH 9.0, 60° C. 30 days): 0%
biological activities [3]: higher biological activities
